{
  "source": "patent US10815276B2",
  "about": "“Cell penetrating peptides and methods of making and using thereof” (Entrada Therapeutics, Inc., priority 2014, dated 2020)",
  "key": {"[1]": {"system": "HeLa cells", "assay": "Live-cell confocal microscopy of FITC-labeled peptides", "type": "cell-based, human", "settings": "5 μM", "procedure": "To detect peptide internalization, 1 mL of HeLa cell suspension (5×10^4 cells) was seeded in a 35 mm glass-bottomed microwell dish (MatTek) and cultured overnight. Cells were gently washed with DPBS twice and treated with FITC labeled peptides (5 μM) and dextran^Rho (0.5 mg mL^−1) in phenol-red free DMEM containing 1% serum at 37° C. for 1 h in the presence of 5% CO2. After removal of the medium, the cells were gently washed with DPBS twice and incubated with 5 μM DRAQS in DPBS for 10 min. The cells were again washed with DPBS twice and imaged on a Visitech Infinity 3 Hawk 2D-array live cell imaging confocal microscope. Images were captured under the same parameters and adjusted under the same setting using MetaMorph (Molecular Devices)."}, "[2]": {"system": "HeLa cells", "assay": "FACS uptake of FITC-labeled peptides", "type": "cell-based, human", "settings": "5 μM, 2 h"}, "[3]": {"system": "α-chymotrypsin and trypsin", "assay": "Peptide proteolysis stability assay", "type": "in vitro ADME", "settings": "37° C.", "procedure": "The stability tests were carried out by slightly modifying a previously reported procedure (Frackenpohl, J et al. Chembiochem 2001, 2, 445). 24 μL of 1.5 mM peptide solution was incubated at 37° C. with 30 μL 50 μM of α-chymotrypsin and 30 μL 50 μM of trypsin in 200 μL of working buffer (50 mM Tris-HCl, pH 8.0, NaCl (100 mM), CaCl2 (10 mM)). At various time points (0-12 h), 40 μL aliquots were withdrawn and mixed with 40 μL of 15% trichloroacetic acid and incubated at 4° C. overnight. The final mixture was centrifuged at 15,000 rpm for 10 min in a microcentrifuge, and the supernatant was analyzed by reversed-phase HPLC equipped with a C18 column (Waters). The amount of remaining peptide (%) was determined by integrating the area underneath the peptide peak (monitored at 214 nm) and compared with that of control reaction (no proteases)."}, "[4]": {"system": "NIH 3T3 cells", "assay": "Anti-pY western blot of global pY protein levels", "type": "cell-based", "settings": "0-500 nM, 2 h", "procedure": "NIH 3T3 cells were cultured in full growth media to reach 80% confluence. The cells were starved in serum free media for 3 h and treated with different concentrations of cFΦR4-PTP1B or untagged PTP1B for 2 h, followed by 30 min incubation in media supplemented with 1 mM sodium pervanadate. The solutions were removed and the cells were washed with cold DPBS twice. The cells were detached and lysed in 50 mM Tris-HCl, pH 7.4, 150 mM NaCl, 1% NP-40, 10 mM sodium pyrophosphate, 5 mM iodoacetic acid, 10 mM NaF, 1 mM EDTA, 2 mM sodium pervanadate, 0.1 mg/mL phenylmethanesulfonyl fluoride, 1 mM benzamidine, and 0.1 mg/mL trypsin inhibitor. After 30 min incubation on ice, the cell lysate was centrifuged at 15,000 rpm for 25 min in a microcentrifuge. The total cellular proteins were separated by SDS-PAGE and transferred electrophoretically to PVDF membrane, which was immunoblotted using anti-pY antibody 4G10.\nNIH 3T3 cells were incubated for 2 h in the presence of untagged PTP1B or cFΦR4-PTP1B and their global pY protein levels were analyzed by anti-pY western blotting (FIG. 12A). […] Several proteins in the 150-200 kD range were completely dephosphorylated upon the addition of 62 nM cFΦR4-PTP1B, whereas proteins of ˜80 kD remained phosphorylated at 500 nM cFΦR4-PTP1B."}, "[5]": {"target": "CAL-PDZ domain (Homo sapiens, UniProt Q9HD26)", "assay": "Fluorescence anisotropy binding to CAL-PDZ", "settings": "absence of a reducing agent", "procedure": "The full fluorescence anisotropy (FA) titration experiment was performed by incubating 100 nM fluorophore-labeled peptidyl ligands with varying concentrations (0-6 μM) of CAL-PDZ (Cushing, P R et al. […] The FA values were measured on a Molecular Devices Spectramax M5 spectrofluorimeter, with excitation and emission wavelengths at 485 nm and 525 nm, respectively. Equilibrium dissociation constants (KD) were determined by plotting the fluorescence anisotropy values as a function of CAL-PDZ concentration. The titration curves were fitted to the following equation, which assumes a 1:1 binding stoichiometry\nwhere Y is the measured anisotropy at a given CAL-PDZ concentration x; L is the bicyclic peptide concentration; Qb/Qf is the correction fact for dye-protein interaction; Amax is the maximum anisotropy when all the peptides are bound to CAP-PDZ, while Amin is the minimum anisotropy when all the peptides are free."}, "[6]": {"system": "ΔF508-CFTR CFBE cells", "assay": "SPQ intracellular chloride concentration assay", "type": "cell-based", "settings": "20 μM VX809 and 50 μM peptide 8", "procedure": "A SPQ (6-Methoxy-N-(3-sulfopropyl)quinolinium) assay was utilized to estimate the transport activity of ΔF508-CFTR activity in CFBE cells, as the fluorescence of SPQ is negatively correlated with increasing concentration of intracellular chloride (Illsley, N P and Verkman, A S. Biochemistry 1987, 26, 1215). CFBE cells were grown on 96-well plate, which was pre-coated with 1 mg/ml human fibronectin, 3 mg/ml collagen I bovine, and 1 mg/ml bovine serum albumin, using DMEM media supplemented with L-glutamine and 10% FBS. […] Cells were then loaded with SPQ using hypotonic shock at 37° C. for 15 min with 10 mM SPQ containing 1:1 (v/v) Opti-MEM/water solution. The cells were then washed and incubated twice for 10 min with fluorescence quenching NaI buffer (130 mM NaI, 5 mM KNO3, 2.5 mM Ca(NO3)2, 2.5 mM Mg(NO3)2, 10 mM D-glucose, 10 mM N-(2-hydroxyethyl) piperazine-N′-(2-ethanesulfonic) acid (HEPES, pH 7.4)). […] Fluorescence non-specific to CFTR-mediated iodide efflux was measured by incubating the cells with the activation cocktail and the CFTR specific inhibitor GlyH101 (10 μM). The effects of CAL-PDZ inhibitors were evaluated by the fluorescence increasing rate above the basal level. The fluorescence of dequenched SPQ was measured using the plate reader VICTOR X3 (Perkin Elmer) with excitation wavelength at 350 nm and DAPI emission filter. […]"}, "[7]": {"system": "Bronchial epithelial CFBE cells", "assay": "Immunofluorescent staining of ΔF508-CFTR", "type": "cell-based", "settings": "10 μM Corr-4a and 50 μM unlabeled peptide 8", "procedure": "After the treatments, cells were fixed in cold methanol for 20 min. The slides were then incubated in 1% BSA/PBS for 10 min, followed by incubation at 37° C. for 1 h with mouse anti-human monoclonal CFTR antibody (R&D Systems). Thereafter, the slides were incubated at 37° C. for 45 min with Alexa Fluor® 488-conjugated anti-mouse IgG2a secondary antibody. Cells were visualized on a Leica TCS SP2 AOBS confocal laser scanning microscope. All measurements were conducted in a double-blinded manner by two independent investigators."}, "[8]": {"system": "HeLa cells", "assay": "MTT proliferation assay with Pin1 inhibitors", "type": "cell-based, human", "settings": "MTT", "procedure": "HeLa cells (100 μL/each well, 5×10^4 cells/mL) were seeded in a 96-well culture plate and allowed to grow overnight in DMEM supplemented with 10% FBS. […] After that, 10 μL of a MTT stock solution (5 mg/mL) was added into each well. The plate was incubated at 37° C. for 4 h and 100 μL of SDS-HCl solubilizing solution was added into each well, followed by thorough mixing. The plate was incubated at 37° C. overnight and the absorbance of the formazan product was measured at 570 nm on a Molecular Devices Spectramax M5 plate reader. Each experiment was performed in triplicates and the cells untreated with peptide were used as control."}, "[9]": {"system": "HEK293 cells", "assay": "FACS uptake of rhodamine-labeled bicyclic vs monocyclic peptide", "type": "cell-based, human", "description": "In recent years, there has been much interest in cyclic peptides as therapeutic agents and biomedical research tools (Driggers, E M et al. Nat. Rev. Drug Discov., 2008, 7, 608-624; Marsault, E and Peterson, M L. J. Med. Chem., 2011, 54, 1961-2004). For example, cyclic peptides are effective for inhibition of protein-protein interactions (Lian, W et al. J. Am. Chem. Soc., 2013, 135, 11990-11995; Liu, T et al. ACS Comb. Sci., 2011, 13, 537-546; Dewan, V et al. ACS Chem. Biol., 2012, 7, 761-769; Wu, X et al. Med. Chem. Commun., 2013, 4, 378-382), which are challenging targets for conventional small molecules. A major obstacle in developing cyclic peptide therapeutics is that they are generally impermeable to the cell membrane (Kwon, Y U and Kodadek, T. Chem. Biol., 2007, 14, 671-677; Rezai, T et al. J. Am. Chem. Soc., 2006, 128, 2510-2511; Chatterjee, J et al. Acc. Chem. Res., 2008, 41, 1331-1342). […] The bicyclic peptides were readily synthesized by forming three amide bonds between a trimesoyl scaffold and three amino groups on the corresponding linear peptide (i.e., the N-terminal amine, the side chain of a C-terminal diaminopropionic acid (Dap), and the side chain of a lysine (or ornithine, Dap) imbedded in between the CPP and target-binding motifs) (Lian, W et al. J. Am. Chem. Soc., 2013, 135, 11990-11995). […]"}},
  "note": "Starred links: 1 amine or outer side, 2 acyl side, 3 side chain; linkers in the order of their positions; H or OH if unused. Positions of bridges follow the written chain, without caps; N, C: chain ends. Non-standard residues stand in square brackets, D forms with d. Residues, ends and D or L forms follow the SMILES beside them. No end group written: not given here. *: point of attachment. RhodamineB = CCN(CC)c1ccc2c(-c3ccccc3C(=O)*)c3ccc(=[N+](CC)CC)cc-3oc2c1; Trimesoyl = O=C(c1cc(C(=O)[*:2])cc(C(=O)[*:3])c1)[*:1]; 2Nal = N[C@@H](Cc1ccc2ccccc2c1)C(=O)O; Phg = N[C@H](C(=O)O)c1ccccc1; Pip = O=C(O)[C@@H]1CCCCN1; Dap = NC[C@H](N)C(=O)O",
  "data": [
    {"compound": "CH3CH2CH2CO-FΦRRRRUK(FITC)-NH2 [Peptide 2 (Example 2)]", "values": [
      {"measurement": "Intracellular FITC fluorescence (confocal)", "setting": "[1]", "result": "much weaker intracellular fluorescence"},
      {"measurement": "Mean fluorescence intensity (MFI), total intracellular FITC fluorescence", "setting": "[2]", "result": "5530 arbitrary units (AU)"},
      {"measurement": "Half-life with protease cocktail", "setting": "[3]", "result": "~20", "unit": "min"}
    ]},
    {"compound": "cFΦR4-PTP1B: cFΦR4 conjugated to ybbR-tagged PTP1B catalytic domain via a thioether bond", "values": [
      {"measurement": "Global pY protein levels", "setting": "[4]", "result": "concentration-dependent decrease in pY levels"}
    ]},
    {"compound": "C[C@@H]1NC(=O)[C@H](CCCNC(=N)N)NC(=O)[C@H](Cc2ccc3ccccc3c2)NC(=O)[C@@H]2CCCCN2C(=O)[C@@H]([C@H](C)O)NC(=O)[C@H](c2ccccc2)NC(=O)[C@H](Cc2c[nH]cn2)NC(=O)c2cc3cc(c2)C(=O)NC[C@H](NC(=O)[C@@H](C)NC1=O)C(=O)N[C@@H](Cc1ccccc1)C(=O)N[C@@H](Cc1ccc2ccccc2c1)C(=O)N[C@@H](CCCNC(=N)N)C(=O)N[C@@H](CCCNC(=N)N)C(=O)N[C@@H](CCCNC(=N)N)C(=O)N[C@@H](CCCNC(=N)N)C(=O)N[C@H](C(=O)N[C@@H](CCCCN)C(N)=O)CNC3=O", "note": "[Peptide 8, bicyclo[Tm-(His-Phg-D-Thr-Pip-Nal-Arg-Ala-D-Ala)-Dap-(Phe-Nal-Arg-Arg-Arg-Arg-Dap)]-Lys] (H[Phg][dT][Pip][2Nal]RA[dA][Dap]F[2Nal]RRRR[Dap]K-NH2; linker N-9-16 via Trimesoyl; C-terminus assumed)", "values": [
      {"measurement": "Binding to CAL-PDZ domain", "setting": "[5]", "result": "no detectable binding"},
      {"measurement": "Intracellular FITC fluorescence (confocal)", "setting": "[1]", "result": "intense and diffuse fluorescence throughout the entire cell"},
      {"measurement": "Ion channel activity of ΔF508-CFTR", "setting": "[6]", "result": "acted synergistically"},
      {"measurement": "ΔF508-CFTR at the cell surface", "setting": "[7]", "result": "much greater amounts of the protein at the cell surface"},
      {"measurement": "Effect on cell growth", "setting": "[8]", "result": "inhibited cell growth, but to a lesser extent than inhibitor 7"}
    ]},
    {"compound": "[Tm(AAAAA)K(RRRRΦF)J]-K(Rho) (Trimesoyl-AAAAAKRRRR[2Nal]F[Dap]K(RhodamineB); linker (positions not given here) via Trimesoyl; not fully specified (C-terminus, bridges); printed as [Tm(AAAAA)K(RRRRΦF)J]-K(Rho)) [bicyclo(FΦR4-A5)^Rho]", "values": [
      {"measurement": "Uptake more efficient than corresponding monocyclic peptide (compound 17)", "setting": "[9]", "result": "~3", "unit": "fold"}
    ]}
  ]
}
